# Results reported in US20150216189A1, “NATAMYCIN-CYCLODEXTRIN COMPLEXES FOR USE IN FOODSTUFF, PROCESS FOR THEIR MANUFACTURE AND USE THEREOF” (priority 2011, published 2015).
# What was measured:
# [1] = Source text: Natamycin is sensitive to both high and low pH values and is degraded under such conditions. Despite this fact, the present invention utilizes such pH ranges. […] Typically the pH value is in the range of 10 to 12. In another embodiment the pH value of the aqueous solution in the complexation step is in the range of 6 or lower, preferably 1 to 4. Typically the pH value is lower than 4, such as in the range of 3 to 4. […] The tests in FIG. 1 and FIG. 2 were made through mixing natamycin (1%) and cyclodextrin (1%) with water (98%)
# yeasts and moulds = details: cited from earlier work
# [2] = cited from earlier work
# mould = assay: Tortilla spray application shelf life study (mould growth); details: 21.7° C., no natamycin (variables 2, 3)
# Protocol: A gamma-cyclodextrin-natamycin solution was produced employing a high pH system and the obtained solution was spray dried. Tortillas were treated with a standard natamycin (Natamax® SF) treatment, the spray-dried gamma-cyclodextrin-natamycin product, and traditional chemical preservatives to assess relative antifungal efficacy in baked goods.
# Sample Variables in the Tortilla Treatments: • 1. Control—Deionized Water • 2. Control—Gamma-cyclodextrin (0.5% solution) • 3. Traditional Chemical Preservatives (fumarate, sorbate, propionate) • 4. Natamax® SF (target of ˜12 ppm natamycin on finished product) • 5. Gamma-cyclodextrin-natamycin powder (target of ˜12 ppm natamycin on finished product) • 6. Gamma-cyclodextrin-natamycin powder (target of ˜6 ppm natamycin on finished product)
# For the spray application, each of the solutions were sprayed on 36 tortillas (about seven inches in diameter) using roughly the same spray volume. The tortillas were held on standard storage racks at 21.7° C. and monitored 0 to 30 days for mould growth.
# [3] = Antifungal activity on baked goods
# Source text: Studies were done wherein aqueous solutions of natamycin-cyclodextrin complexes have been applied onto shredded cheese or used in pharmaceutical preparations.
structure (smiles),measurement,setting,value
C[C@@H]1C/C=C/C=C/C=C/C=C/[C@H](O[C@@H]2O[C@H](C)[C@@H](O)[C@H](N)[C@@H]2O)C[C@@H]2O[C@](O)(C[C@@H](O)C[C@H]3O[C@@H]3/C=C/C(=O)O1)C[C@H](O)[C@H]2C(=O)O [Natamycin],percentage of solubilized natamycin,[1],lower than 4%
same,concentrations inhibiting most strains,yeasts and moulds,1-40 ppm
same,maximum water solubility,[2],around 40 ppm
"OC[C@H]1O[C@@H]2O[C@H]3[C@H](O)[C@@H](O)[C@@H](O[C@H]4[C@H](O)[C@@H](O)[C@@H](O[C@H]5[C@H](O)[C@@H](O)[C@@H](O[C@H]6[C@H](O)[C@@H](O)[C@@H](O[C@H]7[C@H](O)[C@@H](O)[C@@H](O[C@H]8[C@H](O)[C@@H](O)[C@@H](O[C@H]9[C@H](O)[C@@H](O)[C@@H](O[C@H]1[C@H](O)[C@H]2O)O[C@@H]9CO)O[C@@H]8CO)O[C@@H]7CO)O[C@@H]6CO)O[C@@H]5CO)O[C@@H]4CO)O[C@@H]3CO [Variable 2, Gamma-cyclodextrin]",Number of moulded tortillas,mould; Day 0,0
same,Number of moulded tortillas,mould; Day 5,20
same,Number of moulded tortillas,mould; Day 6,25
same,Number of moulded tortillas,mould; Day 7,26
same,Number of moulded tortillas,mould; Day 8,28
same,Number of moulded tortillas,mould; Day 9,28
same,Number of moulded tortillas,mould; Day 12,30
same,Number of moulded tortillas,mould; Day 13,30
same,Number of moulded tortillas,mould; Day 14,30
same,Number of moulded tortillas,mould; Day 15,30
same,Number of moulded tortillas,mould; Day 16,30
same,Number of moulded tortillas,mould; Day 19,30
same,Number of moulded tortillas,mould; Day 20,30
same,Number of moulded tortillas,mould; Day 21,30
same,Number of moulded tortillas,mould; Day 26,30
same,Number of moulded tortillas,mould; Day 27,30
same,Number of moulded tortillas,mould; Day 28,30
same,Number of moulded tortillas,mould; Day 29,30
same,Number of moulded tortillas,mould; Day 30,30
same,antifungal activity when applied on baked goods,[3],no antifungal activity
